What was measured:
Aβ40 = Aβ40 (Homo sapiens, UniProt P05067); assay: Inhibition of Aβ40 self-aggregation (thioflavin T fluorescence, 2% HFIP); conditions: read-out: Aβ40 Aggregation Inhibition % at 100 μM
Sequence of Aβ40 (P05067 672-711 limits assumed): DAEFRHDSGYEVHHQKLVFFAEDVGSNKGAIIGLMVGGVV
Description: All the newly prepared compounds were tested in a routine in vitro assay of inhibition of Aβ40 self-aggregation [25].
All assays were performed in 96-well plates (Greiner Bio-One, Kremsmünster, Austria) using an Infinite M1000 Pro plate reader (Tecan, Cernusco s.N., Italy). Inhibition data were obtained as mean ± SD (for single concentration points) or mean ± SEM from three independent experiments (for IC50s), using Prism (GraphPad Prism version 5.00 for Windows, GraphPad Software, San Diego, CA, USA).
Assay of aggregation of Aβ40 (EzBiolab, Carmel, IN, USA) was performed as described [25], using 2% of 1,1,1,3,3,3-hexafluoro-2-propanol as aggregation enhancer and spectrofluorimetric detection of thioflavin T fluorescence as the probe of amyloid aggregation.

O=C1C(c2c(O)nc3ccccc3c2O)=Nc2ccccc21 [Compound 43, 2-(2,4-Dihydroxyquinolin-3-yl)-3H-indol-3-one]
melting point: 90 to 92 °C
inhibition at 100 µM (Aβ40): 17 ± 3%

Source: article PMC7731220, “Pharmacophore Modeling and 3D-QSAR Study of Indole and Isatin Derivatives as Antiamyloidogenic Agents Targeting Alzheimer’s Disease” (Molecules, 2020)
